# Reference: US9234176B2, “Chemically defined production of cardiomyocytes from pluripotent stem cells” (The Board of Trustees of the Leland Stanford Junior …, priority 2012, dated 2016)
# Tests used:
# [1] = test system: hiPSC; experiment: Analysis of components of defined media for hiPSC cardiac differentiation (contraction score); type: cell-based, human; parameters: 9 components subtracting: cardiac differentiation score / 2 components subtracting: cardiac differentiation score: key: 0: no cardiac differentiation or cell death; +: some contraction; ++: >50% contraction; +++: >75% contraction; conditions: for 21 components subtracting: cardiac differentiation score: a) each of the 21 components of B27 without insulin subtracted one at a time, score of medium lacking the component; for 10 components subtracting: cardiac differentiation score: b) second medium of 10 essential components, each subtracted one at a time; for 9 components subtracting: cardiac differentiation score: c) 9-component medium; for 9 components subtracting: cardiac differentiation score / 9 components (with 4 at 10x) subtracting: cardiac differentiation score / 6 components subtracting: cardiac differentiation score: each component subtracted; for 9 components (with 4 at 10x) subtracting: cardiac differentiation score: e) third medium with increased concentrations; for 6 components subtracting: cardiac differentiation score: f) fourth 6-component medium
# Source text: Development of a Chemically Defined Cardiac Differentiation Platform. We first generated eleven pluripotent hiPSC lines under chemically defined conditions (FIG. 7) on a chemically synthesized vitronectin peptide substrate, with nonenzymatic passaging (FIG. 8). […] To formulate a chemically defined differentiation protocol, we concentrated on the observation that three unrelated media formations are capable of supporting growth factor-based monolayer cardiac differentiation: RPMI+B27-ins, supplemented StemPro-34, and LI-APEL (Table 5). […] Beginning with the 21 components of B27, we subtracted one component at a time and assessed for continued high efficiency differentiation (Table 6a-c) and also assessed components from two other two media (supplemented StemPro-34 and LI-APEL) that yielded benefits (Table 6d-f). We concluded that hiPSC cardiac differentiation was successful in a media consisting of […]: RPMI 1640 basal medium, L-ascorbic acid 2-phosphate (AA 2-P), and BSA (Table 6g).
# Other additions to cardiac differentiation media tested were 10.7 μg/mL recombinant human transferrin, […], 1 μg/mL linoleic acid, 1 μg/mL linolenic acid, 2 ng/mL triiodo-l-thyronine, 2 μg/mL L-carnitine, 1 μg/mL D,L-alpha-tocopherol acetate, 100 ng/mL retinol acetate, 1 μg/mL ethanolamine, 20 ng/mL corticosterone, 9 ng/mL progesterone, 47 ng/mL lipoic acid, 100 ng/mL retinol, 1 μg/mL D,L-alpha-tocopherol, 100 ng/mL biotin, 2.5 ug/mL catalase, 2.5 μg/mL glutathione, 2.5 μg/mL superoxide dismutase, 2 μg/mL L-carnitine, 15 μg/mL D(+)-galactose, 16.1 μg/mL putrescine, 450 μM 1-thioglycerol, 55 μM 2-mercaptoethanol, 64 μg/mL L-ascorbic acid 2-phosphate (all from Sigma-Aldrich).
# [2] = test system: hPSC; experiment: Directed cardiac differentiation of hPSC in minimal media (Example 1); type: cell-based, human; conditions: for further enhancement of differentiation by pathway inhibitors: small molecule inhibitors at the later stage of differentiation; for Wnt signaling antagonist effective for cardiac differentiation: at a concentration of 5 μM
# Description: Directed Cardiac Differentiation Procedure. (volumes provided are for a T25 flask; adjust volumes proportionately for larger vessels) Day 0 (day 4 after passage): Aspirate medium, and replace with 5 mL of minimal media (CDM3, D3, D4, or D11) supplemented with 6 uM of CHIR-99021 (CHIR-99021 can be used at 4-15 μM). Place flasks in a regular ambient O2, 5% CO2 incubator. Day 2: 48 h. Aspirate media and replace with 5 mL of minimal media (CDM3, D3, D4, or D11). Day 3: 72 h. Aspirate media and replace with 5 mL of minimal media (CDM3, D3, D4, or D11) supplemented with 0.5 uM C59 (C59 may be used at 0.5-5 μM). Day 5: Aspirate media and replace with 5 mL of minimal media (CDM3, D3, D4, or D11). From day 5 onwards media should be changed every 2 days with minimal media (CDM3, D3, D4, or D11).
# From day 0 to day 2 (d0-d2), minimal media (CDM3, D3, D4, or D11) was supplemented with the Wnt signaling agonist CHIR-99021 (6-10 uM 48 h, d0-d2), which triggers canonical Wnt/β-Catenin signaling that leads to the subsequent up-regulation of BMP4 and activin A. Media is then exchanged to non-supplemented minimal media (CDM3, D3, D4, or D11) for 1 day followed by contact with a Wnt signaling antagonist (e.g., C59: 0.5-5 uM, 48 h, d3-d5) for 2 days. At day 5, 7, and 9 minimal media (CDM3, D3, D4, or D11) is exchanged for fresh media, and contraction begins between d7 and d10. At day 11, media is exchanged to a variant of minimal media (CDM3, D3, D4, or D11) without […] that results in the depletion of non-cardiomyocytes due to a lack of glycogen stores. Media was exchanged on day 13 for fresh media lacking glucose. At day 15, media was exchanged for fresh minimal media (CDM3, D3, D4, or D11) (containing glucose).
# The presence of cardiomyocytes was verified in a number of different ways, for example: flow cytometry of cells contacted with an antibody specific for a cardiomyocyte marker (TNNT2); imaging of cells stained with antibodies specific for α-Sarcomeric actin (red) and Troponin T (TNNT2); electrophysiological profiling; and evaluating responsiveness to known cardioactive drugs (e.g., Norepinephrine). Assays performed on multiple different cell lines (including several hESC lines and over 30 hiPSC lines) confirmed that the subject methods are highly consistent and highly efficient, as very little variability was observed among the different cell lines.
# [3] = d) component at 10 x concentration
compound,measurement,setting,value
"CC(=O)Oc1c(C)c(C)c2c(c1C)CCC(C)(CCCC(C)CCCC(C)CCCC(C)C)O2 [D,L-a-tocopherol acetate]",21 components subtracting: cardiac differentiation score,[1],0
same,10 components subtracting: cardiac differentiation score,[1],0
same,9 components subtracting: cardiac differentiation score,[1],0
same,9 components with the addition of: cardiac differentiation score,[1]; [3],+++ (>75% contraction)
same,9 components (with 4 at 10x) subtracting: cardiac differentiation score,[1],+++ (>75% contraction)
Holo transferrin: B27 component,21 components subtracting: cardiac differentiation score,[1],0
same,10 components subtracting: cardiac differentiation score,[1],0
same,9 components subtracting: cardiac differentiation score,[1],0
same,9 components with the addition of: cardiac differentiation score,[1]; [3],+
same,6 components subtracting: cardiac differentiation score,[1],+++ (>75% contraction)
O=[Se](O)O [Sodium selenite],21 components subtracting: cardiac differentiation score,[1],0
same,10 components subtracting: cardiac differentiation score,[1],0
same,9 components subtracting: cardiac differentiation score,[1],0
same,9 components with the addition of: cardiac differentiation score,[1]; [3],+++ (>75% contraction)
same,6 components subtracting: cardiac differentiation score,[1],+++ (>75% contraction)
"N[C@@H](Cc1cc(I)c(Oc2ccc(O)c(I)c2)c(I)c1)C(=O)O [T3 (triiodol-l-thyronine), triiodol-l-thyronine]",21 components subtracting: cardiac differentiation score,[1],0
same,10 components subtracting: cardiac differentiation score,[1],0
same,9 components subtracting: cardiac differentiation score,[1],0
same,9 components with the addition of: cardiac differentiation score,[1]; [3],+++ (>75% contraction)
same,9 components (with 4 at 10x) subtracting: cardiac differentiation score,[1],+++ (>75% contraction)
C[C@]12CCC(=O)C=C1CC[C@@H]1[C@@H]2[C@@H](O)C[C@@]2(C)[C@H]1CC[C@]2(O)C(=O)CO [Hydrocortisone],9 components with the addition of: cardiac differentiation score,[1]; d) addition of components from the other media formulae of Table 5,+
"CC(=O)OC/C=C(C)/C=C/C=C(C)/C=C/C1=C(C)CCCC1(C)C [Retinol acetate (vit A), Retinol acetate]",21 components subtracting: cardiac differentiation score,[1],0
same,10 components subtracting: cardiac differentiation score,[1],0
same,9 components subtracting: cardiac differentiation score,[1],0
same,9 components with the addition of: cardiac differentiation score,[1]; [3],+++ (>75% contraction)
same,9 components (with 4 at 10x) subtracting: cardiac differentiation score,[1],+++ (>75% contraction)
"Cc1c(C)c2c(c(C)c1O)CCC(C)(CCCC(C)CCCC(C)CCCC(C)C)O2 [D,L-a-tocopherol (vit E), D,L-a-tocopherol]",21 components subtracting: cardiac differentiation score,[1],++ (>50% contraction)
c1ccc2c(-c3cnn4cc(-c5ccc(N6CCNCC6)cc5)cnc34)ccnc2c1 [LDN193189],further enhancement of differentiation by pathway inhibitors,[2],did not further enhance the differentiation
c1ccc(-c2[nH]ncc2-c2ccnc3ccccc23)nc1 [LY364947],further enhancement of differentiation by pathway inhibitors,[2],did not further enhance the differentiation
NC(=O)c1ccc(-c2nc(-c3ccc4c(c3)OCO4)c(-c3ccccn3)[nH]2)cc1 [B8431542],further enhancement of differentiation by pathway inhibitors,[2],did not further enhance the differentiation
NCCCCN [Putrescine],21 components subtracting: cardiac differentiation score,[1],++ (>50% contraction)
O=C(O)CCCC[C@@H]1CCSS1 (racemic) [Lipoic acid],21 components subtracting: cardiac differentiation score,[1],++ (>50% contraction)
"CC1=C(/C=C/C(C)=C/C=C/C(C)=C/CO)C(C)(C)CCC1 [Retinol, all trans (vit. A), Retinol, all trans]",21 components subtracting: cardiac differentiation score,[1],++ (>50% contraction)
"O=C(O)CCCC[C@@H]1SC[C@@H]2NC(=O)N[C@@H]21 [Biotin (vit B7), Biotin]",21 components subtracting: cardiac differentiation score,[1],++ (>50% contraction)
CCCCC/C=C\C/C=C\CCCCCCCC(=O)O [Linoleic acid],21 components subtracting: cardiac differentiation score,[1],0
same,10 components subtracting: cardiac differentiation score,[1],0
same,9 components subtracting: cardiac differentiation score,[1],0
same,9 components with the addition of: cardiac differentiation score,[1]; [3],+
same,9 components (with 4 at 10x) subtracting: cardiac differentiation score,[1],0
same,6 components subtracting: cardiac differentiation score,[1],+++ (>75% contraction)
N[C@@H](CCC(=O)N[C@@H](CS)C(=O)NCC(=O)O)C(=O)O [Glutathione (reduced)],21 components subtracting: cardiac differentiation score,[1],++ (>50% contraction)
"COc1ccccc1-n1c(SCC(=O)Nc2nc3ccc(C)cc3s2)nc2c(c1=O)SCC2 [IWP-4, 2-(3,4,6,7-tetrahydro-3-(2-methoxyphenyl)-4-oxothieno[3,2-d]pyrimidin-2-ylthio)-N-(6-methylbenzo[d]thiazol-2-yl)acetamide]",Wnt signaling antagonist effective for cardiac differentiation,[2],effective
CC(=O)[C@H]1CC[C@H]2[C@@H]3CCC4=CC(=O)CC[C@]4(C)[C@H]3CC[C@]12C [Progesterone],21 components subtracting: cardiac differentiation score,[1],++ (>50% contraction)
"O=C(Nc1cccc2cccnc12)c1ccc(N2C(=O)C3C4C=CC(C4)C3C2=O)cc1 (centres unmarked) [IWR-1, 4-(1,3,3a,4,7,7a-Hexahydro-1,3-dioxo-4,7-methano-2H-isoindol-2-yl)-N-8-quinolinyl-Benzamide]",Wnt signaling antagonist effective for cardiac differentiation,[2],effective
"O=C1[C@H](Cc2ccc(O)cc2)N2C(=O)CCN(C(=O)NCc3ccccc3)[C@H]2CN1Cc1cccc2ccccc12 [ICG-001, (6S,9aS)-6-(4-hydroxybenzyl)-N-benzyl-8-(naphthalen-1-ylmethyl)-4,7-diaxo-hexahydro-2H-pyrazino[1,2-a]pyrimidine-1(6H)-carboxamide]",Wnt signaling antagonist effective for cardiac differentiation,[2],not found to be effective
O=C[C@H](O)[C@@H](O)[C@@H](O)[C@H](O)CO [D(+)-galactose],21 components subtracting: cardiac differentiation score,[1],++ (>50% contraction)
CC/C=C\C/C=C\C/C=C\CCCCCCCC(=O)O [Linolenic acid],21 components subtracting: cardiac differentiation score,[1],0
same,10 components subtracting: cardiac differentiation score,[1],0
same,9 components subtracting: cardiac differentiation score,[1],0
same,9 components with the addition of: cardiac differentiation score,[1]; [3],+
same,9 components (with 4 at 10x) subtracting: cardiac differentiation score,[1],0
same,6 components subtracting: cardiac differentiation score,[1],+++ (>75% contraction)
Catalase,21 components subtracting: cardiac differentiation score,[1],++ (>50% contraction)
NCCO [Ethanolamine],21 components subtracting: cardiac differentiation score,[1],++ (>50% contraction)
C[C@]12C[C@H](O)[C@H]3[C@@H](CCC4=CC(=O)CC[C@@]43C)[C@@H]1CC[C@@H]2C(=O)CO [Corticosterone],21 components subtracting: cardiac differentiation score,[1],0
same,10 components subtracting: cardiac differentiation score,[1],++ (>50% contraction)
"O=c1[nH]c(-c2ccc(C(F)(F)F)cc2)nc2c1CSCC2 [XAV939, 3,5,7,8-Tetrahydro-2-[4-(trifluoromethyl)phenyl]-4H-thiopyrano[4,3-d]pyrimidin-4-one]",Wnt signaling antagonist effective for cardiac differentiation,[2],effective
C[S+]([O-])c1ccc(-c2nc(-c3ccncc3)c(-c3ccc(F)cc3)[nH]2)cc1 (centres unmarked) [SB203580],further enhancement of differentiation by pathway inhibitors,[2],did not further enhance the differentiation
C[N+](C)(C)C[C@H](O)CC(=O)[O-] [L-carnitine],21 components subtracting: cardiac differentiation score,[1],0
same,10 components subtracting: cardiac differentiation score,[1],0
same,9 components subtracting: cardiac differentiation score,[1],0
same,9 components with the addition of: cardiac differentiation score,[1]; [3],0
